Consider 8 molecules from patent US20230295086A1, “NOVEL PSILOCIN DERIVATIVES HAVING PRODRUG PROPERTIES” (COMPASS […], priority 2020, published 2023).

Values after ≈ are worked out from the molar mass of the structure shown. Marks after values point to notes of the source that are not given here.

A word on the solubility: it is the dissolved amount per volume that the medium holds. Higher therefore signals much dissolved substance. One may read the logD as the decadic logarithm of the distribution of all forms, ionised or not, between an organic phase and buffer at a given pH. In general, Solubility refers to the concentration that dissolves in the medium under given conditions.

Series [1] is described as follows: Kinetic solubility assay (Example 11). The procedure:
Test and control compounds were diluted to 10 mM in DMSO and then further diluted 1 in 50 in 50 mM PB (pH 7.4) to a target concentration of 200 μM. Samples were vortexed for at least 2 minutes and then left to shake (800 rpm) at room temperature for 24 hours. Visual appearance was assessed before centrifugation and injection into a UPLC system to measure concentration. […] Each compound was tested in duplicate.

The nature of series [2]: Shake flask Log D assay (Example 11). Format: physicochemical. Particulars: 1-Octanol / 100 mM PB pH 7.4, shake flask, LC-MS/MS; test compound as hydrochloride. The procedure: Test and control compounds were diluted to 10 mM in DMSO. 2 μl of each stock solution was aliquoted into tubes in duplicate. 1-Octanol saturated phosphate buffer (PB) (pH 7.4) was prepared by adding 1-Octanol into 100 ml of 100 mM PB (7.4). PB saturated 1-Octanol was prepared by adding 10 ml of 100 mM PB (7.4) into 100 ml of 1-Octanol. 149 μl of each solution was aliquoted into the corresponding tubes. These were then mixed vigorously for 2 minutes and shaken (800 rpm) at room temperature for one hour. The appropriate volume of buffer and 1-Octanol layer samples was aliquoted and diluted, before detection using LC-MS/MS.
Log D was calculated according to the following equation: […]

The target in series [3] is T1, serotonin 2A (5-HT2A) receptor (Mus musculus, UniProt P35363).
T1 construct: tissue Charles River UK; host or cells: whole living male C57BL/6J mice (in vivo, oral gavage)
T1 sequence (P35363 whole entry): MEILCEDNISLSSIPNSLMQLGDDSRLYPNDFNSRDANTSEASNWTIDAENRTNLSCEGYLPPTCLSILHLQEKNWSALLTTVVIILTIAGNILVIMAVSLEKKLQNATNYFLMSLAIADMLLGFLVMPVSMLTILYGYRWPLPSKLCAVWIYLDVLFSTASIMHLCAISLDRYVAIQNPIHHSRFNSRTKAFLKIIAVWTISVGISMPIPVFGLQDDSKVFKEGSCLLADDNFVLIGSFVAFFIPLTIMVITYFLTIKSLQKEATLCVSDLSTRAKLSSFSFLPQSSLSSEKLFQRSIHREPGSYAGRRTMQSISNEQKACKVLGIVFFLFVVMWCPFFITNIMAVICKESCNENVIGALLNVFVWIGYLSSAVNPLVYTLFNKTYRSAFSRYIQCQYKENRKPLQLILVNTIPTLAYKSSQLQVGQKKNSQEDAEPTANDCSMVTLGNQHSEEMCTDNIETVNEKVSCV
As to the kind of experiment: Head twitch response (HTR) in mice. Format: in vivo, male C57BL/6J mice. To be noted: oral gavage 0.3 mg/kg.

The nature of series [4]: Kinetic turbidimetric solubility assay. Particulars: 0.01 M PBS pH 7.4, 2% DMSO, room temperature, novel compounds as hemifumarate, psilocybin and psilocin free base; for solubility at 5 min: pH 7.4, aqueous buffer, kinetic from dmso stock. The method, then: Each test compound was diluted to 10 mM in DMSO. From this solution, six further dilutions of each test compound were prepared in DMSO (0.02, 0.1, 0.2, 1, 2, and 5 mM). […] Three replicate wells were designated per concentration. Following the dilutions in buffer, plates were incubated at room temperature shaking for 5 minutes before the absorbance was measured at 620 nm using a Molecular Devices SpectraMax384 UV detector. Nicardipine was tested as a control compound.
Solubility was estimated from the concentration of test compound that produced an increase in absorbance above a threshold of 0.005 absorbance units and was normalized to the DMSO blank.

A short description of series [5]: Micro shake flask Log D. Particulars: for Mean LogD: Octanol:PBS 1:9, pH 7.4, 10 μM, six replicates, novel compounds as hemifumarate; for logD at 2 h: pH 7.4. The procedure: 6 replicates of each test compound were incubated at 10 μM in a 1:9 ratio of Octanol: PBS at pH 7.4. Following a two hour incubation at room temperature shaking at 600 rpm, the incubation plate was centrifuged for 15 minutes to separate the layers and then two aliquots were removed from the PBS layer. The first was left neat and the second was diluted 10-fold to give dilute samples. Internal standards were added to both the calibration curve and the PBS incubation samples for analysis on LC MS/MS.
All 6 replicates of the neat samples were averaged to give one value for each, with the same calculation performed for the dilute sample values.

Series [6] is described as follows: Intake study: serum concentrations after oral ingestion by two volunteers. Particulars: for c(Psilocin): study 1. The procedure:
Two volunteers (1 M, 1 F) ingested about 1 mg of each one of P1 and M1 (Study 1) and P2 and M2 (Study 2) in gelatin capsules (exact amounts in Tables 3 and 4). One blood sample was collected prior to ingestion of the substances and served as a zero control. After ingestion samples were collected for about 8 h with increasing time intervals between sample taking (exact protocol in Tables 4 and 5). […] The obtained sera were transferred in plastic tubes and NaF (ca. 30 mg) and ascorbic acid (ca. 5 mg) were added to increase analytes stability.
200 μL serum were spiked with an internal standard solution (10 μL) and ACN (600 μL) was added to precipitate soluble proteins. Before mixing thoroughly ammonium formate (10 M, 200 μL) was added separate the aqueous from the organic phase. After centrifugation (6 min, 4,000×g), 500 μL of the organic phase were transferred into another vial and evaporated to dryness at 40° C. under a gentle stream of nitrogen. Samples were reconstituted in 100 μL mobile phase (A/B, 90/10, v/v) and used for analysis. For quantification a blank sample and a six point calibration (0.5, 1.0, 2.0, 5.0, 10, 20 ng/mL) in calf serum were prepared as described above.
The HPLC-MS system consisted of a Nexera X2 UHPLC system composed of three LC-30AD pumps, a DGU-30A3 degasser, a SIL-30AC autosampler, a CTO-10AS column oven and a CBM-20A controller (Shimadzu, Duisburg, Germany) coupled to a QTRAP 6500plus triple quadrupole linear ion trap mass spectrometer equipped with a TurbolonSpray Interface (Sciex, Darmstadt, Germany). The MS was operated in positive electrospray ionization mode. Data acquisition was performed in scheduled multiple reaction monitoring mode (detection window: 60 s) using Analyst software (version 1.7). MS parameters (declustering potential, entrance potential, collision energy, and collision cell exit potential) were optimized for all substances to obtain the best possible signal intensities (summary of the MRM parameters are given in Table 5). Ion source temperature and ion source voltage were set to 550° C. and +5500 V, respectively. Dwell time was 20 ms for every MRM transition. Curtain gas (N2) pressure was 35 psi, ion source gas 1 and 2 (compressed air) pressure were 50 and 60 psi, respectively, and collision gas (N2) pressure was set to “high.” Chromatographic separation was performed on a Kinetex® biphenyl column (100×2.1 mm, 2.6 μm particle size, Phenomenex, Aschaffenburg, Germany) with a corresponding guard column (SecurityGuard™ ULTRA Cartridges UHPLC Biphenyl for 2.1 mm ID columns, Phenomenex, Aschaffenburg, Germany). The autosampler and the column oven temperature were set to 10° C. and 40° C., respectively. The injection volume was 10 μL.

[7] abbreviates: serum, oral intake of about 1 mg prodrug, mean of 2 volunteers.

For the molecule `NC(=O)N1c2ccccc2C=Cc2ccccc21` [Carbamazepine], in series [1] (50 mM PB pH 7.4, target 200 μM, 24 hours shaking at room temperature, UPLC, test compound as hydrochloride), the Detected concentration was 180 µM. Further, in series [1] (pH 7.4, aqueous buffer, kinetic from dmso stock), the solubility at 24 h is above 180 µM.
As to `CN(C)CCCN1c2ccccc2Sc2ccc(Cl)cc21` [Chlorpromazine], the logD at 1 h in series [2] was determined as 3.28.
As for `CCOC(=O)Oc1cccc2[nH]cc(CCN(C)CC)c12` [N-methyl-N-ethyltryptamine-4-yl ethylcarbonate], in series [3] (N = 8), the “Mean number of head twitches 15-30 mins” value is 3.5, the “Mean number of head twitches 30-45 mins” value stood at 2.38 and the “Mean number of head twitches 45-60 mins” value came out at 0.38. The Solubility in series [4] was above 200 µM. Moreover, the “Mean LogD” value in series [5] stood at 1.01.
For the molecule `CC(C)(C)NCC(O)COc1cccc2c1CC(O)C(O)C2` (stereo not shown) [Nadolol], the logD at 1 h in series [2] is -1.33.
For `COC(=O)C1=C(C)NC(C)=C(C(=O)OCCN(C)Cc2ccccc2)C1c1cccc([N+](=O)[O-])c1` (stereo not shown) [Nicardipine], the solubility at 5 min in series [4] was found to be 24.4 µM (≈ 11.7 µg/mL).
`CN(C)CCc1c[nH]c2cccc(O)c12` [Psilocin, psilocin]: the solubility at 5 min in series [4] was above 200 µM. The same molecule showed a logD at 2 h in series [5] of 1.01.
`CCOC(=O)Oc1cccc2[nH]cc(CCN(C)C)c12` [Psilocin-4-yl-ethylcarbonate, psilocin-4-yl ethyl carbonate]: the “Parent prodrug itself in serum (not detected, LOD)” value in series [6] (serum after oral ingestion of about 1 mg) is recorded as below 0.05 ng/mL. Also, in series [6] (setting [7]), the Cmax of psilocin turned out to be 1.1 ± 0.5 ng/mL. In series [6] (setting [7]), the Tmax of psilocin is 0.933 ± 0.217 h. In series [6] (setting [7]), the “elimination constant kel of psilocin” value came out at 0.0039 min⁻¹. The “elimination half life t1/2 of psilocin” value in series [6] (setting [7]) came out at 3.18 h. Also, the “c(Psilocin)” value in series [6] (serum, test person A, oral P1 1.03 mg salt, 15 min, below LOQ, extrapolated) is listed as 0.15* ng/mL; in series [6] (serum, test person A, oral P1 1.03 mg salt, 21 min) it was 0.34 ng/mL; in series [6] (serum, test person A, oral P1 1.03 mg salt, 31 min), 0.51 ng/mL; in series [6] (serum, test person A, oral P1 1.03 mg salt, 49 min) it was 0.82 ng/mL; in series [6] (serum, test person A, oral P1 1.03 mg salt, 65 min), 1.45 ng/mL; in series [6] (serum, test person A, oral P1 1.03 mg salt, 87 min), 1.02 ng/mL. In addition, the “c(Psilocin)” value came out at 1.02 ng/mL in series [6] (serum, test person A, oral P1 1.03 mg salt, 120 min); 0.59 ng/mL in series [6] (serum, test person A, oral P1 1.03 mg salt, 155 min); 0.98 ng/mL in series [6] (serum, test person A, oral P1 1.03 mg salt, 165 min); 0.58 ng/mL in series [6] (serum, test person A, oral P1 1.03 mg salt, 240 min); 0.34 ng/mL in series [6] (serum, test person A, oral P1 1.03 mg salt, 338 min); 0.33 ng/mL in series [6] (serum, test person A, oral P1 1.03 mg salt, 371 min). Further, the “c(Psilocin)” value is 0.29* ng/mL in series [6] (serum, test person A, oral P1 1.03 mg salt, 424 min, below LOQ, extrapolated); 0.26* ng/mL in series [6] (serum, test person A, oral P1 1.03 mg salt, 486 min, below LOQ, extrapolated); 0.22* ng/mL in series [6] (serum, test person B, oral P1 0.99 mg salt, 6 min, below LOQ, extrapolated); 0.25* ng/mL in series [6] (serum, test person B, oral P1 0.99 mg salt, 13 min, below LOQ, extrapolated); 0.38 ng/mL in series [6] (serum, test person B, oral P1 0.99 mg salt, 20 min); 0.60 ng/mL in series [6] (serum, test person B, oral P1 0.99 mg salt, 30 min). Further, the “c(Psilocin)” value in series [6] (serum, test person B, oral P1 0.99 mg salt, 47 min) worked out at 0.76 ng/mL; in series [6] (serum, test person B, oral P1 0.99 mg salt, 64 min) it was 0.54 ng/mL; in series [6] (serum, test person B, oral P1 0.99 mg salt, 83 min), 0.60 ng/mL; in series [6] (serum, test person B, oral P1 0.99 mg salt, 114 min), 0.43 ng/mL; in series [6] (serum, test person B, oral P1 0.99 mg salt, 165 min), 0.37 ng/mL; in series [6] (serum, test person B, oral P1 0.99 mg salt, 232 min) it was 0.32 ng/mL. In addition, the “c(Psilocin)” value in series [6] (serum, test person B, oral P1 0.99 mg salt, 322 min, below LOQ, extrapolated) is 0.25* ng/mL; in series [6] (serum, test person B, oral P1 0.99 mg salt, 369 min, below LOQ, extrapolated), 0.24* ng/mL; in series [6] (serum, test person B, oral P1 0.99 mg salt, 432 min, below LOQ, extrapolated), 0.22* ng/mL. Besides, in series [3] (N = 8), the “Mean number of head twitches 0-15 mins” value was 3.5. For the same molecule, the “Mean number of head twitches 15-30 mins” value in series [3] (N = 8) is reported as 3.13. Moreover, the “Mean number of head twitches 30-45 mins” value in series [3] (N = 8) is 3.38. Further, the “Mean number of head twitches 45-60 mins” value in series [3] (N = 8) is given as 1.13. Further, the “Mean number of head twitches Total 0-60 mins” value in series [3] (N = 8, 0.3 mg/kg) is on record as 10.84. Moreover, the “Mean LogD” value in series [5] amounted to 1.22.
Turning to `CN(C)CCc1c[nH]c2cccc(OP(=O)(O)O)c12` [Psilocybin, psilocybin, reference compound], the solubility at 5 min in series [4] is at least 100 µM. Besides, the logD at 2 h in series [5] was found to be 0.57.
